According to PubChem BioAssay (NCI):
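In this assay, cells in 96-well plates receive the compound at five concentrations for 48 hours. Endpoints are linearly interpolated between the surrounding concentrations. GI50 = concentration required for 50% inhibition of growth. TGI is the concentration that stops growth completely.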

Legend:
Assay in all cases: inhibition of tumour cell growth, NCI panel, 48 h
786-0 renal = test system: 786-0 renal
A498 renal = test system: A498 renal
A549 NSCLC = test system: A549 NSCLC
ACHN renal = test system: ACHN renal
BT-549 breast = test system: BT-549 breast
CAKI-1 renal = test system: CAKI-1 renal
CCRF-CEM leukemia = test system: CCRF-CEM leukemia
COLO 205 colon = test system: COLO 205 colon
DU-145 prostate = test system: DU-145 prostate
EKVX NSCLC = test system: EKVX NSCLC
HCC-2998 colon = test system: HCC-2998 colon
HCT-116 colon = test system: HCT-116 colon
HCT-15 colon = test system: HCT-15 colon
HL-60(TB) leukemia = test system: HL-60(TB) leukemia
HOP-62 NSCLC = test system: HOP-62 NSCLC
HOP-92 NSCLC = test system: HOP-92 NSCLC
HS 578T breast = test system: HS 578T breast
HT29 colon = test system: HT29 colon
IGROV1 ovarian = test system: IGROV1 ovarian
K-562 leukemia = test system: K-562 leukemia
KM12 colon = test system: KM12 colon
LOX IMVI melanoma = test system: LOX IMVI melanoma
M14 melanoma = test system: M14 melanoma
MALME-3M melanoma = test system: MALME-3M melanoma
MCF7 breast = test system: MCF7 breast
MDA-MB-231 breast = test system: MDA-MB-231 breast
MDA-MB-435 = test system: MDA-MB-435
MDA-MB-468 breast = test system: MDA-MB-468 breast
MOLT-4 leukemia = test system: MOLT-4 leukemia

Q: With `N#Cc1c(NC(=O)c2ccc(C(F)(F)F)cc2)sc2c1CCC(O)=C2` as the compound, how does the GI50 (786-0 renal) read?
A: 5.53 µM

Q: What about the TGI (786-0 renal) of the same compound?
A: 22.1 µM

Q: What about the GI50 (A498 renal) of the same compound?
A: 14 µM

Q: And the TGI (A498 renal)?
A: 34.2 µM

Q: And the GI50 (A549 NSCLC)?
A: 6.36 µM

Q: And the TGI (A549 NSCLC)?
A: 24.1 µM

Q: What about the GI50 (ACHN renal) of the same compound?
A: 6.81 µM

Q: And the TGI (ACHN renal)?
A: 27.9 µM

Q: And the GI50 (BT-549 breast)?
A: 2.82 µM

Q: And the TGI (BT-549 breast)?
A: 19.3 µM

Q: What about the GI50 (CAKI-1 renal) of the same compound?
A: 3.05 µM

Q: And the TGI (CAKI-1 renal)?
A: 16 µM

Q: And the GI50 (CCRF-CEM leukemia)?
A: 3.21 µM

Q: What about the TGI (CCRF-CEM leukemia) of the same compound?
A: > 100 µM

Q: And the GI50 (COLO 205 colon)?
A: 13.4 µM

Q: What about the TGI (COLO 205 colon) of the same compound?
A: 30 µM

Q: What about the GI50 (DU-145 prostate) of the same compound?
A: 6.53 µM

Q: And the TGI (DU-145 prostate)?
A: 22 µM

Q: And the GI50 (EKVX NSCLC)?
A: 7.4 µM

Q: What about the TGI (EKVX NSCLC) of the same compound?
A: 31.4 µM

Q: And the GI50 (HCC-2998 colon)?
A: 7.46 µM

Q: What about the TGI (HCC-2998 colon) of the same compound?
A: 21.2 µM

Q: What about the GI50 (HCT-116 colon) of the same compound?
A: 3.49 µM

Q: And the TGI (HCT-116 colon)?
A: 13.4 µM

Q: What about the GI50 (HCT-15 colon) of the same compound?
A: 3.51 µM

Q: And the TGI (HCT-15 colon)?
A: 15.8 µM

Q: What about the GI50 (HL-60(TB) leukemia) of the same compound?
A: 2.77 µM

Q: What about the TGI (HL-60(TB) leukemia) of the same compound?
A: > 100 µM

Q: And the GI50 (HOP-62 NSCLC)?
A: 4.49 µM

Q: What about the TGI (HOP-62 NSCLC) of the same compound?
A: 17.8 µM

Q: And the GI50 (HOP-92 NSCLC)?
A: 2.85 µM

Q: And the TGI (HOP-92 NSCLC)?
A: 21.9 µM

Q: And the GI50 (HS 578T breast)?
A: 2.32 µM

Q: What about the TGI (HS 578T breast) of the same compound?
A: 14.1 µM

Q: What about the GI50 (HT29 colon) of the same compound?
A: 4.61 µM

Q: And the TGI (HT29 colon)?
A: 18.3 µM

Q: And the GI50 (IGROV1 ovarian)?
A: 5.23 µM

Q: What about the TGI (IGROV1 ovarian) of the same compound?
A: 19 µM

Q: And the GI50 (K-562 leukemia)?
A: 2.23 µM

Q: And the TGI (K-562 leukemia)?
A: > 100 µM

Q: What about the GI50 (KM12 colon) of the same compound?
A: 3.16 µM

Q: And the TGI (KM12 colon)?
A: 13.1 µM

Q: And the GI50 (LOX IMVI melanoma)?
A: 4.56 µM

Q: And the TGI (LOX IMVI melanoma)?
A: 16.8 µM

Q: And the GI50 (M14 melanoma)?
A: 3.6 µM

Q: And the TGI (M14 melanoma)?
A: 15.8 µM

Q: And the GI50 (MALME-3M melanoma)?
A: 2.29 µM

Q: And the TGI (MALME-3M melanoma)?
A: 12 µM

Q: And the GI50 (MCF7 breast)?
A: 3.03 µM

Q: And the TGI (MCF7 breast)?
A: 21.7 µM

Q: What about the GI50 (MDA-MB-231 breast) of the same compound?
A: 2.96 µM

Q: What about the TGI (MDA-MB-231 breast) of the same compound?
A: 14.3 µM

Q: What about the GI50 (MDA-MB-435) of the same compound?
A: 1.23 µM

Q: And the TGI (MDA-MB-435)?
A: 3.31 µM

Q: What about the GI50 (MDA-MB-468 breast) of the same compound?
A: 2.12 µM

Q: What about the TGI (MDA-MB-468 breast) of the same compound?
A: 8.11 µM

Q: And the GI50 (MOLT-4 leukemia)?
A: 4.43 µM

Q: What about the TGI (MOLT-4 leukemia) of the same compound?
A: > 100 µM
